This assay concerns HUVEC/MSC spheroids viability. The experiment in a line: Human HUVEC/MSC cell line growth inhibition [KRAS2].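 For viability, T/C: percent of DMSO vehicle control luminescence so 100% = untreated viability.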 The conditions noted are these: for viability, T/C: stronger effect = lower value. Summed up:
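Concentration ranges start near each agent's clinical Cmax, or at 10 microM if none is established, and fall by half-log increments. These ranges are tested as single agents and combinations on endothelial/mesenchymal stem cell spheroids lacking tumour cells.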

IC50 and viability, T/C data for 4 compounds are collected here from PubChem BioAssay AID2060912 (Molecular Pharmacology Branch, DTP, NCI, 2025).

pIC50: −log10 of the molar value. Where “and” joins values, the source holds several entries; their conditions need not be identical. Equal values may be shown once.

The term pIC50 denotes the negative decadic logarithm of the IC50, by convention in mol/L. Usually viability, T/C stands for the ratio of treated to control. Consider `Cn1nccc1Nc1nccc(-c2cc3c(s2)C(C)(C)N(CCN2CCOCC2)C3=O)n1` + CC1OCC2(CCN(c3cnc(Sc4ccnc(N)c4Cl)c(N)n3)CC2)C1N, for which the pIC50 (curve of first compound, second compound 0.0316 µM) is 5.68; the pIC50 (curve of first compound, second compound 0.1 µM) is 5.56; the pIC50 (curve of first compound, second compound 0.316 µM) is 5.60; the pIC50 (curve of first compound, second compound 1 µM) was 5.76; the pIC50 (curve of first compound, second compound 3.16 µM) is 5.87; the pIC50 (curve of first compound, second compound 10 µM) was 6.37. The viability, T/C reads like this: (second compound 0.0316 µM, first compound 0.0316 µM) 105%; (second compound 0.0316 µM, first compound 0.1 µM) 127%; (second compound 0.0316 µM, first compound 0.316 µM) 108%; (second compound 0.0316 µM, first compound 1 µM) 78%; (second compound 0.0316 µM, first compound 3.16 µM) 34.5%; (second compound 0.0316 µM, first compound 10 µM) 7.19%. For the same compound, the viability, T/C (second compound 0.1 µM, first compound 0.0316 µM) is 117%; the viability, T/C (second compound 0.1 µM, first compound 0.1 µM) is 127%; the viability, T/C (second compound 0.1 µM, first compound 0.316 µM) was 124%; the viability, T/C (second compound 0.1 µM, first compound 1 µM) is 96.3%; the viability, T/C (second compound 0.1 µM, first compound 3.16 µM) was 43.8%; the viability, T/C (second compound 0.1 µM, first compound 10 µM) is 6.82%. Further, the viability, T/C by setting is: (second compound 0.316 µM, first compound 0.0316 µM) 112%; (second compound 0.316 µM, first compound 0.1 µM) 120%; (second compound 0.316 µM, first compound 0.316 µM) 105%; (second compound 0.316 µM, first compound 1 µM) 78.8%; (second compound 0.316 µM, first compound 3.16 µM) 44.2%; (second compound 0.316 µM, first compound 10 µM) 5.45%. For the same compound, the viability, T/C reads like this: (second compound 1 µM, first compound 0.0316 µM) 95.9%; (second compound 1 µM, first compound 0.1 µM) 97.6%; (second compound 1 µM, first compound 0.316 µM) 107%; (second compound 1 µM, first compound 1 µM) 60.7%; (second compound 1 µM, first compound 3.16 µM) 34.6%; (second compound 1 µM, first compound 10 µM) 4.73%. Besides, the viability, T/C was 79.7% (second compound 3.16 µM, first compound 0.0316 µM); 90.2% (second compound 3.16 µM, first compound 0.1 µM); 80.3% (second compound 3.16 µM, first compound 0.316 µM); 57.7% (second compound 3.16 µM, first compound 1 µM); 25.5% (second compound 3.16 µM, first compound 3.16 µM); 8.64% (second compound 3.16 µM, first compound 10 µM). The viability, T/C is, setting by setting: (second compound 10 µM, first compound 0.0316 µM) 73%; (second compound 10 µM, first compound 0.1 µM) 67.4%; (second compound 10 µM, first compound 0.316 µM) 56.1%; (second compound 10 µM, first compound 1 µM) 34.2%; (second compound 10 µM, first compound 3.16 µM) 21.5%; (second compound 10 µM, first compound 10 µM) 4.23%.
Consider `CC(C)NCC(C(=O)N1CCN(c2ncnc3c2C(C)CC3O)CC1)c1ccc(Cl)cc1` (centres undefined), for which the viability, T/C is 83.5% [middle of 5 runs] (compound 0.316 µM), 71.7% [middle of 5 runs] (compound 1 µM) and 51.3% [middle of 5 runs] (compound 10 µM). In addition, the negative logarithm of the IC50 (pIC50) (curve of compound) is < 5.00 and 5.58 and 5.03.
`CC(=O)Nc1cccc(-n2c(=O)n(C3CC3)c(=O)c3c(Nc4ccc(I)cc4F)n(C)c(=O)c(C)c32)c1` + C=CC(=O)N1CCN(c2nc(OCC3CCCN3C)nc3c2CCN(c2cccc4cccc(C)c24)C3)CC1CC#N: the pIC50 is, setting by setting: (curve of first compound, second compound 0.00949 µM) 7.72; (curve of first compound, second compound 0.03 µM) 7.76; (curve of first compound, second compound 0.0949 µM) 7.81; (curve of first compound, second compound 0.3 µM) 7.87; (curve of first compound, second compound 0.949 µM) 7.82; (curve of first compound, second compound 3 µM) 8.73. Also, the viability, T/C by setting is: (second compound 0.00949 µM, first compound 94.9 pM) 95.3%; (second compound 0.00949 µM, first compound 0.0003 µM) 129%; (second compound 0.00949 µM, first compound 0.000949 µM) 125%; (second compound 0.00949 µM, first compound 0.003 µM) 116%; (second compound 0.00949 µM, first compound 0.00949 µM) 90.5%; (second compound 0.00949 µM, first compound 0.03 µM) 23%. For the same compound, the viability, T/C runs as follows: (second compound 0.03 µM, first compound 94.9 pM) 104%; (second compound 0.03 µM, first compound 0.0003 µM) 116%; (second compound 0.03 µM, first compound 0.000949 µM) 112%; (second compound 0.03 µM, first compound 0.003 µM) 115%; (second compound 0.03 µM, first compound 0.00949 µM) 83.8%; (second compound 0.03 µM, first compound 0.03 µM) 18.9%. Further, the viability, T/C reads like this: (second compound 0.0949 µM, first compound 94.9 pM) 97.7%; (second compound 0.0949 µM, first compound 0.0003 µM) 130%; (second compound 0.0949 µM, first compound 0.000949 µM) 133%; (second compound 0.0949 µM, first compound 0.003 µM) 94.9%; (second compound 0.0949 µM, first compound 0.00949 µM) 71.5%; (second compound 0.0949 µM, first compound 0.03 µM) 23.5%. Besides, the viability, T/C was 67% (second compound 0.3 µM, first compound 94.9 pM); 98.3% (second compound 0.3 µM, first compound 0.0003 µM); 114% (second compound 0.3 µM, first compound 0.000949 µM); 97.8% (second compound 0.3 µM, first compound 0.003 µM); 63.6% (second compound 0.3 µM, first compound 0.00949 µM); 18.6% (second compound 0.3 µM, first compound 0.03 µM). Moreover, the viability, T/C by setting is: (second compound 0.949 µM, first compound 94.9 pM) 84.9%; (second compound 0.949 µM, first compound 0.0003 µM) 91.8%; (second compound 0.949 µM, first compound 0.000949 µM) 108%; (second compound 0.949 µM, first compound 0.003 µM) 86.7%; (second compound 0.949 µM, first compound 0.00949 µM) 73.4%; (second compound 0.949 µM, first compound 0.03 µM) 17.2%. The viability, T/C runs as follows: (second compound 3 µM, first compound 94.9 pM) 96.2%; (second compound 3 µM, first compound 0.0003 µM) 105%; (second compound 3 µM, first compound 0.000949 µM) 73.8%; (second compound 3 µM, first compound 0.003 µM) 32.6%; (second compound 3 µM, first compound 0.00949 µM) 2.04%; (second compound 3 µM, first compound 0.03 µM) 1.27%.
In the case of `CC1COCCN1c1cc(-c2ccnn2C)c2ccnc(-c3ccn[nH]3)c2n1` (centres undefined), the viability, T/C (compound 0.03 µM) was 80.5% [middle of 5 runs]; the viability, T/C (compound 0.0949 µM) was 87.6% [middle of 5 runs]; the viability, T/C (compound 0.3 µM) was 73.6% [middle of 5 runs]; the viability, T/C (compound 0.949 µM) is 56.7% [middle of 5 runs]; the viability, T/C (compound 3 µM) is 47.6% [middle of 5 runs]. The pIC50 (curve of compound) is < 5.52 and 5.71 and 5.62.
